Laboratory results taken from patent US6472391B2, “Nitrogen-containing heterocyclic compounds” (Millennium Pharmaceuticals, Inc., priority 1996, dated 2002).

**Q.** With `COc1cc2ncnc(N3CCN(C(=S)NCCN4CCOCC4)CC3)c2cc1OC` [Compound 142, 4-(6,7-Dimethoxy-4-quinazolinyl)-N-(2-morpholinoethyl)-1-piperazinethiocarboxamide] as the compound, how does the melting point read?
**A.** 79 to 81 °C

**Q.** With `COc1cc2ncnc(N3CCN(C(=S)NC(=O)C=Cc4ccccc4)CC3)c2cc1OC` [Compound 143, N-Cinnamoyl-4-(6,7-dimethoxy-4-quinazolinyl)-1-piperazinethiocarboxamide] as the compound, how does the melting point read?
**A.** 184 to 186 °C

**Q.** With `COc1cc2ncnc(N3CCN(C(=O)Nc4cccc(C)c4)CC3)c2cc1OC` [Compound 144, 4-(6,7-Dimethoxy-4-quinazolinyl)-N-(3-tolyl)-1-piperazinecarboxamide] as the compound, how does the melting point read?
**A.** 218 to 219 °C

**Q.** With `COc1cc2ncnc(N3CCN(C(=S)Nc4cccc(C)c4)CC3)c2cc1OC` [Compound 145, 4-(6,7-Dimethoxy-4-quinazolinyl)-N-(3-tolyl)-1-piperazinethiocarboxamide] as the compound, how does the melting point read?
**A.** 199 to 201 °C

**Q.** With `COc1cc2ncnc(N3CCN(C(=S)Nc4ccc(C)cc4)CC3)c2cc1OC` [Compound 146, 4-(6,7-Dimethoxy-4-quinazolinyl)-N-(4-tolyl)-1-piperazinethiocarboxamide] as the compound, how does the melting point read?
**A.** 204 to 205 °C

**Q.** For `COc1cc2ncnc(N3CCN(C(=S)NCc4ccc(C)cc4)CC3)c2cc1OC` [Compound 147, 4-(6,7-Dimethoxy-4-quinazolinyl)-N-(4-methylbenzyl)-1-piperazinethiocarboxamide], which melting point is on record?
**A.** 202 to 204 °C

**Q.** With `CCc1cccc(NC(=O)N2CCN(c3ncnc4cc(OC)c(OC)cc34)CC2)c1` [Compound 148, 4-(6,7-Dimethoxy-4-quinazolinyl)-N-(3-ethylphenyl)-1-piperazinecarboxamide] as the compound, how does the melting point read?
**A.** 207 to 208 °C

**Q.** With `CCc1cccc(NC(=S)N2CCN(c3ncnc4cc(OC)c(OC)cc34)CC2)c1` [Compound 149, 4-(6,7-Dimethoxy-4-quinazolinyl)-N-(3-ethylphenyl)-1-piperazinethiocarboxamide] as the compound, how does the melting point read?
**A.** 195 to 197 °C

**Q.** With `COc1cc2ncnc(N3CCN(C(=O)Nc4cccc(C(C)C)c4)CC3)c2cc1OC` [Compound 150, 4-(6,7-Dimethoxy-4-quinazolinyl)-N-(3-isopropylphenyl)-1-piperazinecarboxamide] as the compound, how does the melting point read?
**A.** 196 to 197 °C

**Q.** With `COc1cc2ncnc(N3CCN(C(=S)Nc4cccc(C(C)C)c4)CC3)c2cc1OC` [Compound 151, 4-(6,7-Dimethoxy-4-quinazolinyl)-N-(3-isopropylphenyl)-1-piperazinethiocarboxamide] as the compound, how does the melting point read?
**A.** 169 to 171 °C

**Q.** For `COc1cc2ncnc(N3CCN(C(=S)Nc4ccc(C(C)C)cc4)CC3)c2cc1OC` [Compound 152, 4-(6,7-Dimethoxy-4-quinazolinyl)-N-(4-isopropylphenyl)-1-piperazinethiocarboxamide], which melting point is on record?
**A.** 194 to 195 °C

**Q.** Which melting point does the source give for `COc1cc2ncnc(N3CCN(C(=O)NCc4ccc(C(C)C)cc4)CC3)c2cc1OC` [Compound 153, 4-(6,7-Dimethoxy-4-quinazolinyl)-N-(4-isopropylbenzyl)-1-piperazinecarboxamide] here?
**A.** 135 to 136 °C

**Q.** For `COc1cc2ncnc(N3CCN(C(=S)NCc4ccc(C(C)C)cc4)CC3)c2cc1OC` [Compound 154, 4-(6,7-Dimethoxy-4-quinazolinyl)-N-(4-isopropylbenzyl)-1-piperazinethiocarboxamide], which melting point is on record?
**A.** 178 to 179 °C

**Q.** Which melting point does the source give for `COc1cc2ncnc(N3CCN(C(=O)Nc4ccc(C(C)(C)C)cc4)CC3)c2cc1OC` [Compound 156, N-(4-tert-Butylphenyl)-4-(6,7-dimethoxy-4-quinazolinyl)-1-piperazinecarboxamide] here?
**A.** 109 to 111 °C

**Q.** For `COc1cc2ncnc(N3CCN(C(=S)NCc4ccc(C(C)(C)C)cc4)CC3)c2cc1OC` [Compound 157, N-(4-tert-Butylbenzyl)-4-(6,7-dimethoxy-4-quinazolinyl)-1-piperazinethiocarboxamide], which melting point is on record?
**A.** 104 to 105 °C

**Q.** For `COc1cc2ncnc(N3CCN(C(=O)Nc4ccc(OC(F)F)cc4)CC3)c2cc1OC` [Compound 158, N-(4-Difluoromethoxyphenyl)-4-(6,7-dimethoxy-4-quinazolinyl)-1-piperazinecarboxamide], which melting point is on record?
**A.** 190 to 192 °C

**Q.** For `COc1cc2ncnc(N3CCN(C(=S)Nc4ccc(C(F)(F)F)cc4)CC3)c2cc1OC` [Compound 159, 4-(6,7-Dimethoxy-4-quinazolinyl)-N-(4-trifluoromethylphenyl)-1-piperazinethiocarboxamide], which melting point is on record?
**A.** 117 to 119 °C

**Q.** For `COc1cc2ncnc(N3CCN(C(=O)NCc4ccc(C(F)(F)F)cc4)CC3)c2cc1OC` [Compound 160, 4-(6,7-Dimethoxy-4-quinazolinyl)-N-(4-trifluoromethylbenzyl)-1-piperazinecarboxamide], which melting point is on record?
**A.** 195 to 197 °C

**Q.** With `COc1cc2ncnc(N3CCN(C(=S)NCc4ccc(C(F)(F)F)cc4)CC3)c2cc1OC` [Compound 161, 4-(6,7-Dimethoxy-4-quinazolinyl)-N-(4-trifluoromethylbenzyl)-1-piperazinethiocarboxamide] as the compound, how does the melting point read?
**A.** 216 to 217 °C

**Q.** For `COc1cc2ncnc(N3CCN(C(=O)Nc4cccc(C(F)(F)F)c4)CC3)c2cc1OC` [Compound 162, 4-(6,7-Dimethoxy-4-quinazolinyl)-N-(3-trifluoromethylphenyl)-1-piperazinecarboxamide], which melting point is on record?
**A.** 180 to 181 °C

**Q.** Which melting point does the source give for `COc1cc2ncnc(N3CCN(C(=S)Nc4cccc(C(F)(F)F)c4)CC3)c2cc1OC` [Compound 163, 4-(6,7-Dimethoxy-4-quinazolinyl)-N-(3-trifluoromethylphenyl)-1-piperazinethiocarboxamide] here?
**A.** 171 to 172 °C

**Q.** For `C=Cc1ccc(NC(=O)N2CCN(c3ncnc4cc(OC)c(OC)cc34)CC2)cc1` [Compound 164, 4-(6,7-Dimethoxy-4-quinazolinyl)-N-(4-vinylphenyl)-1-piperazinecarboxamide], which melting point is on record?
**A.** 214 to 216 °C

**Q.** For `CCC[C@H]1CC[C@H](c2ccc(NC(=S)N3CCN(c4ncnc5cc(OC)c(OC)cc45)CC3)cc2)CC1` [Compound 169, 4-(6,7-Dimethoxy-4-quinazolinyl)-N-[trans-4-(4-propylcyclohexyl)phenyl]-1-piperazinethiocarboxamide], which melting point is on record?
**A.** 106 to 109 °C

**Q.** Which melting point does the source give for `COc1cc2ncnc(N3CCN(C(=S)NCc4cccc(F)c4)CC3)c2cc1OC` [Compound 171, 4-(6,7-Dimethoxy-4-quinazolinyl)-N-(3-fluorobenzyl)-1-piperazinethiocarboxamide] here?
**A.** 100 to 102 °C

**Q.** With `COc1cc2ncnc(N3CCN(C(=O)NCc4ccc(F)cc4)CC3)c2cc1OC` [Compound 172, 4-(6,7-Dimethoxy-4-quinazolinyl)-N-(4-fluorobenzyl)-1-piperazinecarboxamide] as the compound, how does the melting point read?
**A.** 200 to 201 °C

**Q.** Which melting point does the source give for `COc1cc2ncnc(N3CCN(C(=S)NCc4ccc(F)cc4)CC3)c2cc1OC` [Compound 173, 4-(6,7-Dimethoxy-4-quinazolinyl)-N-(4-fluorobenzyl)-1-piperazinethiocarboxamide] here?
**A.** 217 to 218 °C

**Q.** With `COc1cc2ncnc(N3CCN(C(=S)Nc4cccc(Cl)c4)CC3)c2cc1OC` [Compound 175, N-(3-Chlorophenyl)-4-(6,7-dimethoxy-4-quinazolinyl)-1-piperazinethiocarboxamide] as the compound, how does the melting point read?
**A.** 222 to 224 °C

**Q.** For `COc1cc2ncnc(N3CCN(C(=S)NCc4ccccc4Cl)CC3)c2cc1OC` [Compound 176, N-(2-Chlorobenzyl)-4-(6,7-dimethoxy-4-quinazolinyl)-1-piperazinethiocarboxamide], which melting point is on record?
**A.** 175 to 176 °C

**Q.** With `COc1cc2ncnc(N3CCN(C(=S)NC(=O)c4ccc(Cl)cc4)CC3)c2cc1OC` [Compound 179, N-(4-Chlorobenzoyl)-4-(6,7-dimethoxy-4-quinazolinyl)-1-piperazinethiocarboxamide] as the compound, how does the melting point read?
**A.** 166 to 168 °C

**Q.** Which melting point does the source give for `COc1cc2ncnc(N3CCN(C(=S)Nc4cccc(Br)c4)CC3)c2cc1OC` [Compound 181, N-(3-Bromophenyl)-4-(6,7-dimethoxy-4-quinazolinyl)-1-piperazinethiocarboxamide] here?
**A.** 220 to 222 °C

**Q.** With `COc1cc2ncnc(N3CCN(C(=S)Nc4ccc(Br)cc4)CC3)c2cc1OC` [Compound 182, N-(4-Bromophenyl)-4-(6,7-dimethoxy-4-quinazolinyl)-1-piperazinethiocarboxamide] as the compound, how does the melting point read?
**A.** 170 to 171 °C

**Q.** With `COc1cc2ncnc(N3CCN(C(=O)NCc4ccc(Br)cc4)CC3)c2cc1OC` [Compound 184, N-(4-Bromobenzyl)-4-(6,7-dimethoxy-4-quinazolinyl)-1-piperazinecarboxamide] as the compound, how does the melting point read?
**A.** 211 to 212 °C

**Q.** For `COc1cc2ncnc(N3CCN(C(=S)NCc4ccc(Br)cc4)CC3)c2cc1OC` [Compound 185, N-(4-Bromobenzyl)-4-(6,7-dimethoxy-4-quinazolinyl)-1-piperazinethiocarboxamide], which melting point is on record?
**A.** 217 to 218 °C

**Q.** Which melting point does the source give for `COc1cc2ncnc(N3CCN(C(=O)Nc4cccc(I)c4)CC3)c2cc1OC` [Compound 186, 4-(6,7-Dimethoxy-4-quinazolinyl)-N-(3-iodophenyl)-1-piperazinecarboxamide] here?
**A.** 205 to 208 °C

**Q.** With `COc1cc2ncnc(N3CCN(C(=S)NCc4ccc(C)c(Cl)c4)CC3)c2cc1OC` [Compound 190, N-(3-Chloro-4-methylbenzyl)-4-(6,7-dimethoxy-4-quinazolinyl)-1-piperazinethiocarboxamide] as the compound, how does the melting point read?
**A.** 108 to 110 °C

**Q.** With `COc1cc2ncnc(N3CCN(C(=S)Nc4ccc(Br)c(C)c4)CC3)c2cc1OC` [Compound 191, N-(4-Bromo-3-methylphenyl)-4-(6,7-dimethoxy-4-quinazolinyl)-1-piperazinethiocarboxamide] as the compound, how does the melting point read?
**A.** 160 to 161 °C

**Q.** With `COc1cc2ncnc(N3CCN(C(=O)Nc4ccc(F)c(Cl)c4)CC3)c2cc1OC` [Compound 193, N-(3-Chloro-4-fluorophenyl)-4-(6,7-dimethoxy-4-quinazolinyl)-1-piperazinecarboxamide] as the compound, how does the melting point read?
**A.** 200 to 201 °C

**Q.** Which melting point does the source give for `COc1cc2ncnc(N3CCN(C(=S)NCc4ccc(Cl)c(Cl)c4)CC3)c2cc1OC` [Compound 195, N-(3,4-Dichlorobenzyl)-4-(6,7-dimethoxy-4-quinazolinyl)-1-piperazinethiocarboxamide] here?
**A.** 197 to 200 °C

**Q.** For `COc1ccc(NC(=S)N2CCN(c3ncnc4cc(OC)c(OC)cc34)CC2)cc1` [Compound 196, 4-(6,7-Dimethoxy-4-quinazolinyl)-N-(4-methoxyphenyl)-1-piperazinethiocarboxamide], which melting point is on record?
**A.** 196 to 197 °C
